Source: ChEMBL document CHEMBL1201862, “PubChem BioAssay data set” (2004)
Where “and” joins values, the source holds several entries; their conditions need not be identical. Equal entries are not always repeated.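 Exposure lasted 48 hours, with cells grown in 96-well plates and compounds tested at five concentrations. The concentration for 50% growth inhibition is given as GI50.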 Calls of active or inactive are those of the source. No stated cut-off is given here; in the data, active = GI50 up to about 1.1 µM and inactive = higher.

Columns and labels:
Assay in all cases: NCI tumour cell line growth inhibition, 48 h
DU-145 = test system: DU-145
HOP-92 = test system: HOP-92
IGROV-1 = test system: IGROV-1
K562 = test system: K562
KM12 = test system: KM12
Malme-3M = test system: Malme-3M
NCI-H23 = test system: NCI-H23
NCI-H522 = test system: NCI-H522
OVCAR-3 = test system: OVCAR-3
OVCAR-5 = test system: OVCAR-5
SK-MEL-28 = test system: SK-MEL-28
SNB-19 = test system: SNB-19
U-251 = test system: U-251
UACC-257 = test system: UACC-257
UACC-62 = test system: UACC-62
COLO 205 = test system: COLO 205
HCC 2998 = test system: HCC 2998
RPMI-8226 = test system: RPMI-8226
SF-539 = test system: SF-539
SK-OV-3 = test system: SK-OV-3

Measured: GI50

C=C(C)CNCCN
inactive: DU-145 > 100 µM | HOP-92 > 100 µM | IGROV-1 > 100 µM | K562 > 100 µM | KM12 > 100 µM | Malme-3M > 100 µM | NCI-H23 > 100 µM | NCI-H522 > 100 µM | OVCAR-3 > 100 µM | OVCAR-5 > 100 µM | SK-MEL-28 > 100 µM | SNB-19 > 100 µM | U-251 > 100 µM | UACC-257 > 100 µM | UACC-62 > 100 µM

Oc1ccc(Br)cc1/C=N/c1c(NC2CCCCC2)oc2ccc(Br)cc12
inactive: COLO 205 > 10 µM | DU-145 60.3 µM | HCC 2998 35.8 µM | IGROV-1 56.4 µM | K562 10.7 µM | KM12 21 µM | Malme-3M 31.7 µM | NCI-H23 15.5 µM | OVCAR-3 18.2 µM | OVCAR-5 63.1 µM | RPMI-8226 7.18 µM | SF-539 61.2 µM | SK-MEL-28 41.5 µM | SK-OV-3 87.5 µM | SNB-19 > 100 µM | U-251 34.9 µM | UACC-257 37.8 µM | UACC-62 38.6 µM

CC(C)(C)/C(O)=C\c1nc2cc(C(F)(F)F)ccc2[nH]c1=O
inactive: COLO 205 > 100 µM | DU-145 > 100 µM | HOP-92 > 100 µM | IGROV-1 > 100 µM | K562 27.9 µM | KM12 > 100 µM | Malme-3M > 100 µM | NCI-H23 > 100 µM | NCI-H522 > 100 µM | OVCAR-3 > 100 µM | OVCAR-5 > 100 µM | RPMI-8226 > 100 µM | SK-MEL-28 > 100 µM | SK-OV-3 > 100 µM | SNB-19 > 100 µM | U-251 > 100 µM | UACC-257 > 100 µM | UACC-62 > 100 µM

Cc1cc(-c2cc(C)c(O)c(C(C)(C)C)c2)cc(C(C)(C)C)c1O
inactive: COLO 205 11.1 µM and 13.6 µM | DU-145 15.2 µM and 11.8 µM | HCC 2998 4.54 µM and 4.59 µM | IGROV-1 20.8 µM and 12 µM | K562 9.25 µM and 7.69 µM | KM12 6.07 µM and 9.06 µM | Malme-3M 14.6 µM and 21.4 µM | NCI-H23 10.4 µM and 12.9 µM | NCI-H522 10.5 µM and 12.3 µM | OVCAR-3 12.2 µM and 14.1 µM | OVCAR-5 14.5 µM and 11.9 µM | RPMI-8226 18.9 µM and 12.9 µM | SF-539 15 µM and 18.5 µM | SK-MEL-28 16.7 µM and 12 µM | SK-OV-3 16.7 µM and 14.2 µM | SNB-19 14.6 µM and 13.7 µM | U-251 13.6 µM and 10.6 µM | UACC-257 11.8 µM | UACC-62 13.3 µM and 13.6 µM

C=C(CCOC)CCC1CCCCC(=C)C1=O (configuration not stated)
inactive: COLO 205 > 100 µM | DU-145 > 100 µM | HCC 2998 > 100 µM | IGROV-1 > 100 µM | K562 > 100 µM | KM12 63.1 µM | Malme-3M > 100 µM | NCI-H23 > 100 µM | NCI-H522 > 100 µM | OVCAR-3 > 100 µM | OVCAR-5 > 100 µM | RPMI-8226 > 100 µM | SK-MEL-28 > 100 µM | SK-OV-3 > 100 µM | SNB-19 > 100 µM | U-251 > 100 µM | UACC-62 > 100 µM

COc1cc(NS(C)(=O)=O)ccc1N1Cc2c[nH]c3ccc4nccc1c4c23
inactive: COLO 205 26.7 µM | DU-145 42.5 µM | HOP-92 26.1 µM | IGROV-1 36.3 µM | K562 22.5 µM | KM12 34.4 µM | NCI-H23 39.1 µM | NCI-H522 15.5 µM | OVCAR-3 33.7 µM | OVCAR-5 30 µM | RPMI-8226 17.5 µM | SK-MEL-28 36 µM | SNB-19 34.7 µM | U-251 36.5 µM | UACC-257 37.2 µM | UACC-62 67.8 µM

CC(C)Oc1ccc(CNC2=NCCO2)c2ccccc12
inactive: COLO 205 16.4 µM | DU-145 18.2 µM | HCC 2998 10.9 µM | IGROV-1 12.6 µM | K562 4.57 µM | KM12 18.1 µM | Malme-3M 14.1 µM | NCI-H23 14.6 µM | OVCAR-5 11.6 µM | RPMI-8226 9.77 µM | SF-539 9.66 µM | SK-MEL-28 14.5 µM | SK-OV-3 16.3 µM | SNB-19 7.74 µM | U-251 13.6 µM | UACC-257 5.25 µM | UACC-62 15.3 µM

CC(=O)/C(=C\n1c(=S)[nH]c2ccc([N+](=O)[O-])cc21)C(=O)Nc1ccccc1C
inactive: COLO 205 > 100 µM | DU-145 > 100 µM | HCC 2998 > 100 µM | IGROV-1 > 100 µM | K562 > 100 µM | Malme-3M > 100 µM | NCI-H23 > 100 µM | NCI-H522 > 100 µM | OVCAR-3 > 100 µM | OVCAR-5 > 100 µM | RPMI-8226 > 100 µM | SF-539 8.26 µM | SK-MEL-28 > 100 µM | SK-OV-3 > 100 µM | U-251 > 100 µM | UACC-257 > 100 µM | UACC-62 > 100 µM
